From publication PMC9011347, “Small-Molecule Inhibitors Targeting Lipolysis in Human Adipocytes” (Journal of the American Chemical Society, 2022)

Legend:
Assay in all cases: Off-target lipid hydrolase assay, Expi293 lysates
Assay type in all cases: biochemical
PNPLA6 = biological target: T1, PNPLA6 (Homo sapiens, UniProt Q8IY17); details: NG-497 100 µM, substrate LPC
T1 construct: made in house; host or cells: Expi293 cells, lysate
Description: (§1) Fig. S3: Investigation of off-target effects of NG-497 on structurally and functionally related lipid hydrolases. (a) […]
(§2) NG-497, inhibited PNPLA1/CGI-58-dependent ω-O-acylceramide formation. (b-h) Enzymes were overexpressed in Expi293 cells and cell lysates were used as source of enzymatic activity. Cell lysates were incubated with the indicated substrates 1-oleoyl phosphatidylcholine (LPC), di-oleoyl phosphatidic acid (PA), di-octanoyl phosphatidylglycerol (PG), or para-nitrophenylvalerate (pNPV). Experiments were performed in the presence or absence of NG-497 (100 µM) and the formation of reaction products was monitored. Cell lysates of LacZ-transfected cells were used to detect basal cellular activity. As positive controls, enzymes were inactivated with lipase inhibitors Orlistat (40 µM), R-BEL (10 µM), KLH-45 (20 nM), HSLi (10 µM), or PMSF (10µM).
(§3) Data were calculated relative to the basal activity detected in LacZ-transfected controls. […]
(§4) LPL activity was inhibited using an anti-LPL antibody. All data are presented as mean ± S.D. Statistical significance was determined via ANOVA followed by Bonferroni post hoc test ( ***, p < 0.001).
(§5) (1 picture or pasted object on this page, not shown here) […]
(§6) 2-mercaptoethanol, 4% sodium dodecyl sulfate, 20% glycerin, bromophenol blue) at 98°C for 10 min. For detection of protein expression, anti-Xpress (Thermo Fisher Scientific #R910-25), anti-mouse-HRP Trueblot (Rockland #18-8817-33), and anti-FLAG HRP (MiliporeSigma #A8592) antibodies were used.
(§7) Analysis of toxicity in HepG2 hepatocytes. For LDH-based viability assays, HepG2 cells were seeded in 96-well plates in DMEM (Gibco) containing 100 IU/ml penicillin, 100 IU/ml streptomycin (MilliporeSigma), and 3% heat-inactivated FCS. […]
(§8) Serum stability of ATGL inhibitors. Inhibitors were incubated in 200 µl human serum for 0 and 3 h at 37°C and extracted in 1 ml MTBE/methanol (3/1, v/v) containing acetic acid/butylated hydroxytoluene (500nM). The extraction mixture was shaken at 1,400 x rpm for 1 h at RT and centrifuged for 10 min at 13,000 x rpm for phase separation. 700 µl of the upper, organic phase were collected, dried under a stream of nitrogen, and lipids resolved in 200 µl methanol/isopropanol/H2O (6/3/1), for UPLC- […]
(§9) Chromatographic separation was modified after Knittelfelder et al.2 using an AQUITY UPLC system (Waters Corporation, Milford, USA) equipped with a ZORBAX Eclipse XDB-C18- column (3 × 30 mm, 1.8 µm; Agilent Technologies, Santa Clara, USA) starting a 15 min gradient with 80% solvent A (water/methanol, 1/1, v/v) and 20% solvent B (2-propanol). Both solvents contained ammonium acetate (10 mM), formic acid (0.1 vol%) and phosphoric acid (8 µM) and the column was kept at 50°C. […]

PNPLA8 = biological target: T2, PNPLA8 (Homo sapiens, UniProt Q9NP80); details: NG-497 100 µM, substrate PA
T2 construct: made in house; host or cells: Expi293 cells, lysate
T2 sequence (Q9NP80 whole entry): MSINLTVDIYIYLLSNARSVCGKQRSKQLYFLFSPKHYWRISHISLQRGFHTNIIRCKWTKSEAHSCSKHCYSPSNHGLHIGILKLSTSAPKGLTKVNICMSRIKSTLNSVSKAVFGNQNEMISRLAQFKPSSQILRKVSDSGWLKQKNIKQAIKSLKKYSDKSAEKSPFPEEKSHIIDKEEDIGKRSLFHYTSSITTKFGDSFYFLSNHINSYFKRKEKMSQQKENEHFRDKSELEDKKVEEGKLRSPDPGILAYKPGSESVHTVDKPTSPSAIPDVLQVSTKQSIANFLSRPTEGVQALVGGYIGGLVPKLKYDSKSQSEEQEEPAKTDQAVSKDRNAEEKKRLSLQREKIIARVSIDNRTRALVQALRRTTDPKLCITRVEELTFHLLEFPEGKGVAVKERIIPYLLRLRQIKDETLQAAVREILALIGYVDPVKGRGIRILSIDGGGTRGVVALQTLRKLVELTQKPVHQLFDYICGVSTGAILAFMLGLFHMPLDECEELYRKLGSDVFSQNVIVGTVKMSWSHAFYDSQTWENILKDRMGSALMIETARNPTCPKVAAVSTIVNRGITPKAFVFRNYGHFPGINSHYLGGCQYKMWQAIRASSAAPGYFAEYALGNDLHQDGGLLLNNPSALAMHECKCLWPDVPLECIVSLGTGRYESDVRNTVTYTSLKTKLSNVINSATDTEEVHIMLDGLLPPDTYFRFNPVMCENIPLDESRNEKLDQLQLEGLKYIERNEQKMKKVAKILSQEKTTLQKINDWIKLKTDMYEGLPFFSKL
Description: as §1, §2, §3, §4, §5, §6, §7, §8, §9

PNPLA9 = biological target: T3, PNPLA9 (Homo sapiens, UniProt O60733); details: NG-497 100 µM, substrate PG
T3 construct: made in house; host or cells: Expi293 cells, lysate
T3 sequence (O60733 whole entry): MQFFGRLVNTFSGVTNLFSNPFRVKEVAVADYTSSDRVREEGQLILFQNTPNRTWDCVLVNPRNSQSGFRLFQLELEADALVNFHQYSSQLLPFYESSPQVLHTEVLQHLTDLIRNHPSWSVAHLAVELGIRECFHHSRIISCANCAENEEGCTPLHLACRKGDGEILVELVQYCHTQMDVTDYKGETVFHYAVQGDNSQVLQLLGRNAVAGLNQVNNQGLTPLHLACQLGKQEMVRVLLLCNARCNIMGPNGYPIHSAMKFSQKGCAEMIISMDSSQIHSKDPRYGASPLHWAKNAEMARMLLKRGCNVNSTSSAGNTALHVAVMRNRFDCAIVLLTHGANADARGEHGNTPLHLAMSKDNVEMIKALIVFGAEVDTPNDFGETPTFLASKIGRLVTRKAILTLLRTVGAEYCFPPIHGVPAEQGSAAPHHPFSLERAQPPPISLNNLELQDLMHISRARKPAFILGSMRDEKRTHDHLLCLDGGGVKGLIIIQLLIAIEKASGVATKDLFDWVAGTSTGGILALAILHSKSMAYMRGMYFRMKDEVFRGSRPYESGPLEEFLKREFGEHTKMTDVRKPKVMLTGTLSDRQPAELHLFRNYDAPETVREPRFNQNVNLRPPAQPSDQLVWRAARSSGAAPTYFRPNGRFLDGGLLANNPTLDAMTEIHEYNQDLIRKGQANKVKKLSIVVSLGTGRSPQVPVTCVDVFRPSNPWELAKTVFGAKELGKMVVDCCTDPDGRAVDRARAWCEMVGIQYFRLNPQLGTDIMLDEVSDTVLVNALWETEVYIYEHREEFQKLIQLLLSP
Description: as §1, §2, §3, §4, §5, §6, §7, §8, §9

PNPLA7 = biological target: T4, PNPLA7 (Homo sapiens, UniProt Q6ZV29); details: NG-497 100 µM, substrate LPC
T4 construct: made in house; host or cells: Expi293 cells, lysate
T4 sequence (Q6ZV29 whole entry): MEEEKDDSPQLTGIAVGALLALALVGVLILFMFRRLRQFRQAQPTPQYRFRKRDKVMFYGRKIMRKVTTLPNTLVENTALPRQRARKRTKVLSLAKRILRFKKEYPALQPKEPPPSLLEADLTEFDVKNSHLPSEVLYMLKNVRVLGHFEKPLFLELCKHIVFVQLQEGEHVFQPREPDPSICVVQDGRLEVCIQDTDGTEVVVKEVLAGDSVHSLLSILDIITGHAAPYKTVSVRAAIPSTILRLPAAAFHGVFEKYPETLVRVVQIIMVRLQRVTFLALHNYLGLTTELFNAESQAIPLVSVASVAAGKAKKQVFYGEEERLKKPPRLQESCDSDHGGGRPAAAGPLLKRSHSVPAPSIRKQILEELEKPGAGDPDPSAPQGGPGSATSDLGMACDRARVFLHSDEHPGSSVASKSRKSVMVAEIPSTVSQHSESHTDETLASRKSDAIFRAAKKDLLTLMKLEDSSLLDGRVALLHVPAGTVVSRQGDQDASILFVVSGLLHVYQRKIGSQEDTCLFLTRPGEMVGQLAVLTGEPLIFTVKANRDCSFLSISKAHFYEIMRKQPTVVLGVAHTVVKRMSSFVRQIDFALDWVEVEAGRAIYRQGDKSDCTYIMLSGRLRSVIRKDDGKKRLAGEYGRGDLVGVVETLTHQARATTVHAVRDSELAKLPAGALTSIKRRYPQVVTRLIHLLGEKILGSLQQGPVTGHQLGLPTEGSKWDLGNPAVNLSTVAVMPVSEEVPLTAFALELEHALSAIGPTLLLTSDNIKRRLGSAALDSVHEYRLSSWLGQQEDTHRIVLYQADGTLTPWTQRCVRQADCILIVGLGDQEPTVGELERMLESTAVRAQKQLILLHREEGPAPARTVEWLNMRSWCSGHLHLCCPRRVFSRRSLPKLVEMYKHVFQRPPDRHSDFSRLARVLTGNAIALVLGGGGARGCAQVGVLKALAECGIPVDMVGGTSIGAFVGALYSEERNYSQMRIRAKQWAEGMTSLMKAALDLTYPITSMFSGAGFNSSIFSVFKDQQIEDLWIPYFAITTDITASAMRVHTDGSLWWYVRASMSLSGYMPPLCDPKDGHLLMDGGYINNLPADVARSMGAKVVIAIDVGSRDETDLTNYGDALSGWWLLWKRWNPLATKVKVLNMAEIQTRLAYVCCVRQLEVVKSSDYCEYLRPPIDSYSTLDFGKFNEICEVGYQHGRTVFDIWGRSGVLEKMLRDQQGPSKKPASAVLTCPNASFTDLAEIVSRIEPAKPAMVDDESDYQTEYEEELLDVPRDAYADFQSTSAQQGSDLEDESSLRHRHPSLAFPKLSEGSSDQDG
Description: as §1, §2, §3, §4, §5, §6, §7, §8, §9

T1 sequence (Q8IY17 whole entry): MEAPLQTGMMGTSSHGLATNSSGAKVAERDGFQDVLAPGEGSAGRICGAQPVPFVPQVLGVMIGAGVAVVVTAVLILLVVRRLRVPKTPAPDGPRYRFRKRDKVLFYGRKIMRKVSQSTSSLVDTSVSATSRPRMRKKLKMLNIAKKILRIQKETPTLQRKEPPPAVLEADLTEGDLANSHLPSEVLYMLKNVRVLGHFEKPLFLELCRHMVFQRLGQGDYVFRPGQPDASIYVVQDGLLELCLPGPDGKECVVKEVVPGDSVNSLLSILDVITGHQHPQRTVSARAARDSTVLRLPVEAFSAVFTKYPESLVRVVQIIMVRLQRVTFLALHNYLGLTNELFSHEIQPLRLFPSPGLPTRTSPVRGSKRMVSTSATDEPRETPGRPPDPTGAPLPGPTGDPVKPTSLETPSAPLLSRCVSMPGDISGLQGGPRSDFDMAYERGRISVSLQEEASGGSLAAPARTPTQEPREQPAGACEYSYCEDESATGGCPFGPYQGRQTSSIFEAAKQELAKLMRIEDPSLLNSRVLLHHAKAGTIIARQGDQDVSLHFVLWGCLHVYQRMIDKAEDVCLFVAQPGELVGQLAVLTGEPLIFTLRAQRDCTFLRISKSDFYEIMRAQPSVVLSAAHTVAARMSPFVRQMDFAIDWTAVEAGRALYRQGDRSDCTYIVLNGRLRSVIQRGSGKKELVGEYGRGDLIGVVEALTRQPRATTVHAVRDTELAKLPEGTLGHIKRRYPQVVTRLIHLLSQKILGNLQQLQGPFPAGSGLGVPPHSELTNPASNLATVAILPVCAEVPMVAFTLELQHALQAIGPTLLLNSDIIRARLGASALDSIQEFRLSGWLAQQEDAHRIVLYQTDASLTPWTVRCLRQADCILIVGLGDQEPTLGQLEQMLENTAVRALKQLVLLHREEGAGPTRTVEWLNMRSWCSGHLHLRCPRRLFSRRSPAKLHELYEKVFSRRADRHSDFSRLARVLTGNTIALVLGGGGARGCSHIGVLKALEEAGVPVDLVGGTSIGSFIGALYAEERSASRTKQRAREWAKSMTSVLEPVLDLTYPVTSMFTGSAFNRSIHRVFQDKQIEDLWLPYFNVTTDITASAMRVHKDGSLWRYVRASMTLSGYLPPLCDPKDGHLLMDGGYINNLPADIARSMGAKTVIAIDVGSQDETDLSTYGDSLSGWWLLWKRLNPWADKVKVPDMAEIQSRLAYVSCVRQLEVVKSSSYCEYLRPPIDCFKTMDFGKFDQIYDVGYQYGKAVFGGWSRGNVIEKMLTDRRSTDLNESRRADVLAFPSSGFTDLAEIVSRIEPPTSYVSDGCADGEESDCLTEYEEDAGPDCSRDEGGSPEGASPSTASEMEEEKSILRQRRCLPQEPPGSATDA

CCOc1ccc(-c2cc(OC)cc(C(=O)OC(C)C)n2)cc1 [NG-497]
did not observe inhibition: inhibition of PNPLA6 (PNPLA6) | inhibition of PNPLA8 (PNPLA8) | inhibition of PNPLA9 (PNPLA9) | inhibition of PNPLA7 (PNPLA7)
